Measured values published in patent publication US7611691B2, “Compounds for treatment of copper overload” (The Curators of the University of Missouri, priority 2002, dated 2009).

How the values were obtained:
[1] = Reduction of copper levels in swine after oral Cu loading; type: in vivo; conditions: 15 mg/kg twice daily for three days
Protocol: Eight weanling pigs weighing 10-12 kg were randomly assigned to one of three groups, receiving no thpalanine (N=2), thpalanine via gavage (N=3) or thpalanine intravenously (N=3). All eight pigs underwent 21 consecutive days of oral Cu loading with 10 mg of Cu from copper sulfate per kg of body weight twice daily. Loading was determined by protocol in Mineral Tolerance of Domestic Animals. Pigs also received 10 mg/kg body weight of Cu in their diet. After 21 days dosing with copper sulfate was discontinued. Thpalanine was given to the two drug-treated groups beginning two days following the end of Cu loading. Each of the thpalanine treatment groups (oral and intravenous) received 15 mg thpalanine per kg body weight twice daily for three consecutive days. Four 24 hour urine collections were done to determine urinary Cu excretion beginning 24 hours prior to thpalanine treatment.
Following day 3 of treatment, the pigs were euthanized and a sample of liver/kidney were collected and stored at −10° F. until copper analyses. Statistical analysis was performed using ANOVA. Multiple pairwise comparisons were made using the Tukey test and statistical significance was set at P<0.05.

[2] = Stability of THPAL in bovine serum albumin (BSA) solution by 31P NMR; type: physicochemical
Protocol: 50 mg of BSA (3.3%) was dissolved in 1.5 ml of water. 30 mg of THPAL (0.06 M) was added to this to obtain a clear solution. The measurements of stable (or unoxidized) forms of THPAL in BSA were performed using ^31P NMR spectroscopy. The ^31P NMR resonance of THPAL is very sensitive to alterations on the back bone structure. The temperature of the mixture of THPAL and BSA in water was maintained at 9-12° C.
There was no detectable change in the ^31P NMR resonance until 12-15 hours after mixing the THPAL and BSA. After 24 hours, about 20% THPAL was transferred to uncharacterized compound.

[3] = Attempted oxidation of THPAL with molecular oxygen; type: physicochemical; conditions: aerated water, refluxed for several hours under air
Protocol: THPAL (0.5 g, […]) was dissolved in aerated water (25 ml).

[4] = Oxidation of THPAL using gaseous hydrogen peroxide; type: physicochemical; conditions: aqueous solution exposed to hydrogen peroxide vapors; after two days
[5] = Oxidation of THPAL by 35% aqueous H2O2; type: physicochemical
Protocol: Hydrogen peroxide (0.2 ml, 35%, […]) was added dropwise to a solution of THPAL (0.5 g, 0.014 mmol) in water at room temperature. The reaction mixture was stirred at room temperature for one hour. The solvent was then removed under reduced pressure. The crude product was washed with methanol (5×4 ml), and then characterized as pure O═P(CH2NHCH(CH3)—COOH)3 by NMR spectroscopy. ^31P{^1H} NMR (D2O): 37.07 (s); ^1H NMR (D2O): 1.60 (d, CH3, 9H), 3.96-3.89 (m. CH2 and CH, 9H); ^13C NMR (D2O): 42.9 (d, P—CH2, JC-P=70.05 Hz), 59.6 (d, NH—CH, ^2JC-P=8.25 Hz), 15.59 (s, CH3), 175.15 (s, COOH).

[6] = Oxygen radical absorbance capacity (ORAC hydro FL); conditions: Fluorescein probe; Trolox calibration standard
From the text: (§1) The NORAC value of 18.8 μmolTE/g found for TBPAL (Table 1) is among the highest ever reported for antioxidant drugs.
Trolox, a water-soluble Vitamin E analog, was used as the calibration standard and the ORAC result is expressed as micromole Trolox equivalent (TE) per gram.

[7] = Hydroxyl radical absorbance capacity (HORAC); conditions: Gallic Acid calibration standard
From the text: as §1
^+Gallic Acid was used as the calibration standard and the HORAC result is expressed as mg Gallic Acid equivalent (GAE) per gram.

[8] = Nitricoxide radical absorbance capacity (NORAC)
From the text: as §1
^Trolox was used as the calibration standard and the NORAC result is expressed as μmole Trolox equivalent (TE) per gram.

time with no detectable change in the 31P NMR resonance after mixing THPAL and BSA ([2]; 3.3% BSA in water, 0.06 M THPAL, 9-12° C.): 12 to 15 h
THPAL transferred to uncharacterized compound ([2]; BSA solution, after 24 hours, 9-12° C.): about 20%
oxidation state of THPAL in BSA solution (31P NMR) ([2]; after 72 hours): remained unoxidized
oxidative stability of THPAL in BSA solution (31P NMR) ([2]; after five days): no oxidation
stability in BSA solutions ([2]; overall conclusion): stable
conversion to O═P(CH2NHCH(CH3)COOH)3 [4]: Complete conversion
oxidation of THPAL to the corresponding oxide by oxygen radicals generated by peroxide [5]: complete oxidation
SMILES: CC(NCP(CNC(C)C(=O)O)CNC(C)C(=O)O)C(=O)O (centres unmarked) [THPAL, 2-[({Bis-[(1-carboxy-ethylamino)-methyl]-phosphanyl}-methyl)-amino]-propionic acid]
copper levels in swine kidneys ([1]; Cu-loaded weanling pigs, intravenous): significantly reduced
adverse effects (clinical observations, rate of gain, gross necropsy) ([1]; pigs, oral or intravenous): no adverse effects
oxidation or decomposition by 31P NMR [3]: did not show any oxidation or detectable decomposition
ORAChydroFL [6]: 31 μmoleTE/g
HORAC [7]: Not Detectable
NORAC value [8]: 18.8 μmolTE/g
NORAC ([8]; Trolox calibration standard): 18.81 μmoleTE/g
